Reference: US11414429B2, “Compound or pharmaceutically acceptable salt thereof” (RIKEN, priority 2016, dated 2022)
Read-outs that look alike come from different tables or passages of the source.

How the values were obtained:
tankyrase 1 (TNKS 1) = biological target: T1, tankyrase 1 (TNKS 1) (Homo sapiens, UniProt O95271); assay: Tankyrase inhibitory activity test (ELISA, self-polyADP ribosylation), tankyrase 1; format: biochemical; details: self-polyADP ribosylation
T1 construct: 1,024-1,327aa; made in house; host or cells: cell-free protein synthesis system
T1 sequence (O95271 1024-1327): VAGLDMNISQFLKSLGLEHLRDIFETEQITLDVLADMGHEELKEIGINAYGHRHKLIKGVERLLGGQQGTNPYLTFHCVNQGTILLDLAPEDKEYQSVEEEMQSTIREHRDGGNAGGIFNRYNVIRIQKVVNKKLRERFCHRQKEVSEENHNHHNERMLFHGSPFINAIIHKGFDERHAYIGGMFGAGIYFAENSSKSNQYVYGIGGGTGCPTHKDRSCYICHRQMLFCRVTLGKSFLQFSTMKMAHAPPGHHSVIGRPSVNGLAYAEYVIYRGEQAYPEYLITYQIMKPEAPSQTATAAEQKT
Summary of the method: (§1)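 Flag-tagged TNKS1 (1,024-1,327aa, SAM+PARP) and TNKS2 (613-1,116aa, ANK5+SAM+PARP) were made cell-free and captured overnight at 4 °C on anti-FLAG M2 plates. After 10 min compound preincubation in Tris pH 8.0/MgCl2/DTT buffer, NAD (225 μM) plus biotin-NAD (25 μM) solution was added for 45 min at 30 °C. Auto-PARylation was read by streptavidin-HRP chemiluminescence, giving IC50 from residual activity.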

tankyrase 2 (TNKS 2) = biological target: T2, tankyrase 2 (TNKS 2) (Homo sapiens, UniProt Q9H2K2); assay: Tankyrase inhibitory activity test (ELISA, self-polyADP ribosylation), tankyrase 2; format: biochemical; details: self-polyADP ribosylation
T2 construct: 613-1, 116aa; made in house; host or cells: cell-free protein synthesis system
T2 sequence (Q9H2K2 613-1166): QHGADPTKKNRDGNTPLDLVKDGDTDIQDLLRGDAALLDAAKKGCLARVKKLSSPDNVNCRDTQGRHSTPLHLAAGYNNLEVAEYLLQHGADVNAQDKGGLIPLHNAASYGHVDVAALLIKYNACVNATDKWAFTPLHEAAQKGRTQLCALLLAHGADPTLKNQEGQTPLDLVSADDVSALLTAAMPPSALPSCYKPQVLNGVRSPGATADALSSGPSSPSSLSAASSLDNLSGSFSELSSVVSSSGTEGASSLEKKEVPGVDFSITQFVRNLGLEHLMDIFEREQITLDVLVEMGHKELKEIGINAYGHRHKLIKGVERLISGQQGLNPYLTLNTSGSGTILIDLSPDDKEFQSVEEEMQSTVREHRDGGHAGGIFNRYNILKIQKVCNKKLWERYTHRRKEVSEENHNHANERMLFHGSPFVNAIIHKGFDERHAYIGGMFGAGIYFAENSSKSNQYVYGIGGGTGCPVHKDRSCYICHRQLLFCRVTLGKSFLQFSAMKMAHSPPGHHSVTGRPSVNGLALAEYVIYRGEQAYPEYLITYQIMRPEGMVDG
Summary of the method: as §1

[1] = test system: human colorectal cancer cell line, COLO-320DM; assay: Cell proliferation inhibitory activity test (Celltiter-Glo Luminescent Cell Viability Assay); format: cell-based; details: COLO-320DM cells, 96 hours
Summary of the method: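 Cells grown in RPMI-1640 with 10% FBS and 2 mM glutamine, seeded overnight, then exposed to compound (1% DMSO final) for 96 h at 37° C., 5% CO2. Viability read by ATP luminescence; GI50 is the concentration reducing cell growth to 50% of DMSO control.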

[2] = ELISA, class symbols, read-out: TNKS1 (inhibitory activity against tankyrase 1, IC50 value)
[3] = ELISA, class symbols, read-out: TNKS2 (inhibitory activity against tankyrase 2, IC50 value)
[4] = class symbols, read-out: COLO-320 DM (cell proliferation inhibitory activity, GI50 value)
[5] = tankyrase 1, ELISA, read-out: TNKS1 inhibitory activity (IC50 class)
[6] = tankyrase 2, ELISA, read-out: TNKS2 inhibitory activity (IC50 class)
[7] = read-out: COLO-320 DM cell proliferation inhibitory activity (GI50 class)

Structure (SMILES)	IC50 (tankyrase 1 (TNKS 1); [2])	IC50 (tankyrase 2 (TNKS 2); [3])	GI50 [1, 4]	IC50 (tankyrase 1 (TNKS 1); [5])	IC50 (tankyrase 2 (TNKS 2); [6])	GI50 [1, 7]
O=C(NCCN1CCOCC1)c1cc(Cl)c2c(c1)N(Cc1cccnc1)CC21CCN(c2nc3c(c(=O)[nH]2)CCCC3)CC1 [Example 196, 4-chloro-N-(2-morpho-linoethyl)-1′-(4-oxo-3,4,5,6,7,8-hexahydro-quinazolin-2-yl)-1-(pyridin-3-ylmethyl) spiro[indoline-3,4′-piperidine]-6-carboxamide]	–	–	–	< 20 nM	< 20 nM	600 to 1000 nM
CN1CCC(COc2ccc(F)c3c2N(C)C(=O)C32CCN(c3nc4c(c(=O)[nH]3)CCCN4C)CC2)CC1 [Example 413]	20 to 200 nM	< 20 nM	600 to 1000 nM	–	–	–
CN1CCCc2c1nc(N1CCC3(CC1)C(=O)N(C)c1cc(N4CC(C(=O)O)C4)cc(F)c13)[nH]c2=O [Example 423, 1-[4-fluoro-1-methyl-1′-(8-methyl-4-oxo-3,4,5,6,7,8-hexahydro-pyrido[2,3-d]pyrimi-din-2-yl)-2-oxospiro[in-doline-3,4′-piperidin]-6-yl]azetidine-3-carboxylic acid]	< 20 nM	< 20 nM	< 100 nM	–	–	–
Cn1ccc2c(=O)[nH]c(N3CCC4(CC3)CN(Cc3cccnc3)c3cc(F)cc(F)c34)nc21 [Example 347, 2-[4,6-difluoro-1-(pyridin-3-ylmethyl)spiro [indoline-3,4′-piperidine]-1′-yl]-7-methyl-3,7-dihydro-4H-pyrrolo [2,3-d]pyrimidin-4-one]	–	–	–	20 to 200 nM	20 to 200 nM	600 to 1000 nM
CN1CCC(Oc2cc(F)c3c(c2)N(C)C(=O)C32CCN(c3nc4c(c(=O)[nH]3)CCCN4C)CC2)CC1 [Example 380, 4-fluoro-1-methyl-1′-(8-methyl-4-oxo-3,4,5,6,7,8-hexahydropyrido [2,3-d]pyrimidin-2-yl)-6-[(1-methylpiperidin-4-yl)oxy]spiro [indoline-3,4′-piperidin]-2-one]	–	–	–	< 20 nM	< 20 nM	600 to 1000 nM
CN1CCCc2c1nc(N1CCC3(CC1)C(=O)N(C)c1cc(-c4nc(CN5CCCC5)co4)cc(Cl)c13)[nH]c2=O [Example 329, 4-chloro-1-methyl-1′-(8-methyl-4-oxo-3,4,5,6,7,8-hexahydro-pyrido[2,3-d]-pyrimidin-2-yl)-6-[4-(pyrroidin-1yl-methyl)oxazol-2-yl]-spiro-[indoline-3,4′-piperidin]-2-one]	–	–	–	20 to 200 nM	20 to 200 nM	600 to 1000 nM
CN1CCCc2c1nc(N1CCC3(CC1)C(=O)N(C)c1c(OCCNC(C)(C)C)ccc(F)c13)[nH]c2=O [Example 437, 7-[2-(tert-butylamino)ethoxy]-4-fluoro-1′-(4-hydroxy-8-methyl-6,7-dihydro-5H-pyrido [2,3-d]pyrimidin-2-yl)-1-methylspiro[indole-3,4′-piperidine]-2-one]	20 to 200 nM	20 to 200 nM	100 to 600 nM	–	–	–
O=c1[nH]c(N2CCC3(CC2)CN(CCO)c2cc(F)cc(F)c23)nc2c(CO)cccc12 [Example 259, 2-[4,6-di-fluoro-1-(2-hydroxy-ethyl)spiro-[indoline-3,4′-piperidin]-1′-yl]-8-(hydroxy-methyl)-quinazolin-4(3H)-one]	–	–	–	< 20 nM	< 20 nM	600 to 1000 nM
CN1CCCc2c1nc(N1CCC3(CC1)C(=O)N(C)c1c(OCC4CCNCC4)ccc(F)c13)[nH]c2=O [Example 421, 4-fluoro-1′-(4-hydroxy-8-methyl-6,7-dihydro-5H-pyrido[2,3-d]pyrimidin-2-yl)-1-meth-yl-7-(piperidin-4-yl-methoxy)spiro[indole-3,4′-piperidin]-2-one]	< 20 nM	< 20 nM	100 to 600 nM	–	–	–
CN1CCCc2c(O)nc(N3CCC4(CC3)OC(=O)c3cc(OCCN5CCCC5)cc(F)c34)nc21 [Example 395, 4-fluoro-1′-(4-hydroxy-8-methyl-6,7-dihydro-5H-pyrido[2,3-d]pyrimidin-2-yl)-6-(2-pyrrolidin-1-ylethoxy)spiro[2-benzofuran-3,4′-piperidine]-1-one]	< 20 nM	< 20 nM	600 to 1000 nM	–	–	–
CCOC(=O)c1coc(-c2cc(Cl)c3c(c2)N(C)C(=O)C32CCN(c3nc4c(c(=O)[nH]3)CCCN4C)CC2)n1 [Example 328, 4-chloro-6-(4-ethoxy-carbonyl-oxazole-2-yl)-1-methyl-1′-(8-methyl-4-oxo-3,4,5,6,7,8-hexahydro-pyrido[2,3-d]-pyrimidin-2-yl)spiro-[indoline-3,4′-piperidin]-2-one]	–	–	–	20 to 200 nM	< 20 nM	100 to 600 nM

More lines, now with the values ahead:

IC50 (tankyrase 1 (TNKS 1); [2])	IC50 (tankyrase 2 (TNKS 2); [3])	GI50 [1, 4]	IC50 (tankyrase 1 (TNKS 1); [5])	IC50 (tankyrase 2 (TNKS 2); [6])	GI50 [1, 7]	Structure (SMILES)
< 20 nM	< 20 nM	100 to 600 nM	–	–	–	COCCN1C(=O)C2(CCN(c3nc4c(c(=O)[nH]3)CCCN4)CC2)c2c(F)cccc21 [Example 470, 4-fluoro-1′-(4-hydroxy-5,6,7,8-tetrahydroxypyrido[2,3-d]pyrimidin-2-yl)-1-(2-methoxyethyl)spiro[indole-3,4′-piperidin]-2-one]
–	–	–	< 20 nM	< 20 nM	100 to 600 nM	CN1CCCc2c1nc(N1CCC3(CC1)C(=O)N(C)c1cc(OCCO)cc(F)c13)[nH]c2=O [Example 356, 4-fluoro-6-(2-hydroxy-ethoxy)-1-methyl-1′-(8-methyl-4-oxo-3,4,5,6,7,8-hexahydro-pyrido[2,3-d]pyrimidin-2-yl) spiro [indoline-3,4′-piperidin]-2-one]
< 20 nM	< 20 nM	100 to 600 nM	–	–	–	COCCN1C(=O)C2(CCN(c3nc4c(c(=O)[nH]3)CCCN4C)CC2)c2c(F)cc(OCc3nnn[nH]3)cc21 [Example 418, 4-fluoro-1-(2-methoxyethyl)-1′-(8-methyl-4-oxo-3,4,5,6,7,8-hexahydropyrido[2,3-d]pyrimidin-2-yl)-6-[(1H-tetrazole-5-yl)methoxy]spiro[indoline-3,4′-piperidine]-2(1H)-one]
–	–	–	< 20 nM	< 20 nM	100 to 600 nM	CN1CCCc2c1nc(N1CCC3(CC1)C(=O)N(C)c1cc(OCCN4CCOCC4)cc(F)c13)[nH]c2=O [Example 360, 4-fluoro-1-methyl-1′-(8-methyl-4-oxo-3,4,5,6,7,8-hexahydropy-rido[2,3-d]pyrimidin-2-yl)-6-(2-morpho-linoethoxy) spiro [indoline-3,4′-piperidin]-2-one]
20 to 200 nM	< 20 nM	< 100 nM	–	–	–	COC1CCN(c2cc(F)c3c(c2)N(C)C(=O)C32CCN(c3nc4c(c(=O)[nH]3)CCCN4C)CC2)CC1 [Example 465, 4-fluoro-6-(4-methoxypiperidin-1-yl)-1-methyl-1′-(8-methyl-4-oxo-3,4,5,6,7,8-hexahydropyrido[2,3-d]pyrimidin-2-yl)spiro[indole-3,4′-piperidine]-2(1H)-one]
< 20 nM	< 20 nM	100 to 600 nM	–	–	–	CC(=O)NS(=O)(=O)COc1cc(F)c2c(c1)N(C)C(=O)C21CCN(c2nc3c(c(=O)[nH]2)CCCN3C)CC1 [Example 456, N-[[4-fluoro-1-meth-yl-1′-(8-methyl-4-oxo-3,4,5,6,7,8-hexahydropyrido [2,3-d]pyrimidin-2-yl)-2-oxospiro [indole-3,4′-piperi-dine]-6-yl]oxymeth-ylsulfonyl]aceta-mide]
< 20 nM	< 20 nM	100 to 600 nM	–	–	–	CN1CCCc2c1nc(N1CCC3(CC1)C(=O)N(C)c1cc(OCC(=O)O)cc(F)c13)[nH]c2=O [Example 392]
–	–	–	< 20 nM	< 20 nM	100 to 600 nM	CN1CCCc2c1nc(N1CCC3(CC1)C(=O)N(C)c1c(C#N)ccc(Cl)c13)[nH]c2=O [Example 327, 4-chloro-1-methyl-1′-(8-methyl-4-oxo-3,4,5,6,7,8-hexahydro-pyrido[2,3-d]-pyrimidin-2-yl)-2-oxo-spiro[indoline-3,4′-piperidine]-7-carbonitrile]
–	–	–	< 20 nM	< 20 nM	600 to 1000 nM	CN1CCCc2c1nc(N1CCC3(CC1)C(=O)N(C)c1cc(OCCN4CCS(=O)(=O)CC4)cc(F)c13)[nH]c2=O [Example 361, 6-[2-(1,1-dioxidothio-morpholino)ethoxy]-4-fluoro-1-methyl-1′-(8-methyl-4-oxo-3,4,5,6,7,8-hexahydropy-rido[2,3-d]pyrimidin-2-yl)spiro [indoline-3,4′-piperidin]-2-one]
